Results reported in patent publication US20220127232A1, “HISTONE ACETYLTRANSFERASE MODULATORS AND COMPOSITIONS AND USES THEREOF” (The Trustees of Columbia University in the City of New York, priority 2019, published 2022).
“Also recorded” adds a separate entry of the source. Where two headings read alike, the source gives them in different places.

What was measured:
mice = assay: Contextual fear memory; assay type: in vivo
Method: FIG. 28 is a graph showing that RA010115 rescues oTau- and oAβ-induced defects in contextual fear memory. There is statistical significance when comparing all groups during testing for contextual fear memory at 24 hrs after the electric shock (ANOVA among all groups: F(5, 57)=5.558 p=0.0003). […] The performance was not impaired when mice were treated with only RA010115 or vehicle.

[1] = Stability in human liver microsomes; assay type: in vitro ADME; conditions: for microsomal CLint at 1 μM / half-life at 1 μM: both sexes, human, liver microsomes, pH 7.4, human liver microsomes
Method: Some compounds were tested for stability in human liver microsomes as shown below in Table 2.
Mixed-gender human liver microsomes (Lot #1010420) were purchased from XenoTech. The reaction mixture, minus NADPH, was prepared as described below. The test article was added into the reaction mixture at a final concentration of 1 μM. The control compound, testosterone, was run simultaneously with the test article in a separate reaction. An aliquot of the reaction mixture (without cofactor) was equilibrated in a shaking water bath at 37° C. for 3 minutes. The reaction was initiated by the addition of the cofactor, and the mixture was incubated in a shaking water bath at 37° C. Aliquots (100 μL) were withdrawn at 0, 10, 20, 30, and 60 minutes. Test article and testosterone samples were immediately combined with 400 μL of ice-cold 50/50 acetonitrile (ACN)/H2O containing 0.1% formic acid and internal standard to terminate the reaction. The samples were then mixed and centrifuged to precipitate proteins. All samples were assayed by LC-MS/MS using electrospray ionization. Analytical conditions are outlined in Appendix 1. The peak area response ratio (PARR) to internal standard was compared to the PARR at time 0 to determine the percent remaining at each time point. Half-lives and clearance were calculated using GraphPad software, fitting to a single-phase exponential decay equation.
Liver Microsomes 0.5 mg/mL NADPH (cofactor) 1 mM
Potassium Phosphate, pH 7.4 100 mM
Intrinsic clearance (CLint) was calculated based on CLint=k/P, where k is the elimination constant and P is the protein concentration in the incubation.

[2] = test system: hippocampal slices from WT mice; assay: Long-term potentiation (LTP) in hippocampal slices perfused with oTau or oAβ; assay type: cell-based
Excerpt: Synaptic dysfunction is a major hallmark of AD (Histol Histopathol, 1995. 10(2): p. 509-19; herein incorporated by reference in its entirety). An aspect of the drug screening protocol can include a measurement of the effect of compounds onto synaptic function. Amyloid-beta (Aβ) is a toxic peptide that is thought to underlie subtle amnesic changes occurring at early stages of Alzheimer's disease. It impairs both memory and its electrophysiological surrogate, long-term potentiation (LTP). LTP can be examined because it is a type of synaptic plasticity thought to underlie learning and memory. RA010115 can rescue the Aβ-induced reduction of LTP, and other compounds can also be screened to identify those that can re-establish normal LTP. The compounds can be applied for 20 min. Controls can be performed on slices in the absence of Aβ, and mice treated with compound. Tau is another peptide that is involved in cell to cell communication, and impairs both memory and LTP in animal models of AD and other tauopathies. FIG. 26 is a graph showing that RA010115 rescues oligomeric Tau (oTau)- and oligomeric Aβ (o Aβ)-induced LTP deficits. LTP was impaired in hippocampal slices from WT mice perfused with oTau (50 nM) and oAβ (200 nM), whereas there was no impairment in slices treated with RA10115 or vehicle. LTP was restored in slices perfused with RA010115 and either oTau or oAβ. The horizontal solid bar represents oAβ and oTau perfusion while the horizontal dashed bar represents RA010115. The three arrows correspond to the theta-burst stimulation. […]

Structure (SMILES): COc1cccc(OC)c1C(=O)Nc1ccc(Cl)c(C(F)(F)F)c1 [RA010115]
- oTau- and oAβ-induced defects in contextual fear memory (freezing) (mice; 24 hrs after the electric shock): rescues
- Contextual fear memory performance, compound alone (mice; mice treated with only compound): not impaired
- microsomal CLint at 1 μM ([1]; calculated value printed in parentheses behind the bound, read-out: CLint, value in parentheses): 150 µL/min/mg
- half-life at 1 μM ([1]; fitted value printed in parentheses behind the bound, read-out: Half-life, value in parentheses): 9.25 min
- microsomal CLint at 1 μM ([1]; read-out: CLint): > 139 µL/min/mg
- half-life at 1 μM ([1]; read-out: Half-life): < 10 min
- % Remaining of Initial (n = 1) 0 min ([1]; human liver microsomes, test article 1 μM, 0 min): 100%
- % Remaining of Initial (n = 1) 10 min ([1]; human liver microsomes, test article 1 μM, 10 min): 47.7%
- % Remaining of Initial (n = 1) 20 min ([1]; human liver microsomes, test article 1 μM, 20 min): 21.1%
- % Remaining of Initial (n = 1) 30 min ([1]; human liver microsomes, test article 1 μM, 30 min): 11.4%
- % Remaining of Initial (n = 1) 60 min ([1]; human liver microsomes, test article 1 μM, 60 min): 2.59%
- LTP in slices treated with compound alone ([2]; no oTau or oAβ): no impairment
- oTau- and oAβ-induced LTP deficits ([2]; slices perfused with compound and either oTau (50 nM) or oAβ (200 nM)): restored; also recorded: rescues
